These results are taken from publication PMC6891695, “Evaluation of Antifouling Potential and Ecotoxicity of Secondary Metabolites Derived from Red Algae of the Genus Laurencia” (Marine Drugs, 2019).

In series [1] the test system is cyprids of A. amphitrite. The series can be described thus: whole plant or invertebrate. The series is classed as in vivo. The conditions noted are these: for EC50 / IC50: Amphibalanus amphitrite; for EC50: read-out: EC50 No Metamorphosis; for IC50: read-out: IC50 Settlement; for toxic effect on cyprids: in vivo. The protocol: (§1) Adult A. amphitrite (Cirripedia, Balanidae) were collected from boat docks at Port Mikrolimano and Floisvos, Athens, Greece. Animals were cleaned of epibionts with a small hard brush and meticulously identified as individuals of the species. Adult barnacles were kept in separate aerated glass tanks (20 L) containing 200-μm filtered natural seawater at 27 °C and a 12:12 L:D photoperiod. Tanks were fed with 24-h hatched Artemia sp. (Branchiopoda) nauplii and Tetraselmis suecica (Chlorodendrophyceae) and Skeletonema costatum (Bacillariophyceae) algae each day and seawater was changed on alternate days. Upon stress to induce oviposition (exposure to air for 24 h or immersion in fresh water for 5 h), adults were returned to seawater for larval release. Hatched nauplii were attracted to a point light source, collected and placed into a beaker containing 2 or 3 L of 0.7 μm GF/F (GE Healthcare, Little Chalfont, UK )-filtered natural seawater at a density of approximately 1–2 nauplii/mL with gentle aeration. Nauplii were maintained at 27 °C at a 12:12 L:D photoperiod on a diet of C. gracilis (Bacillariophyceae) provided at a density of 2 × 10^5 cells/mL. Cultured in these conditions, nauplii metamorphosed to cyprids in 5 days. Aliquots of these cyprids were collected with a wide-mouthed Pasteur pipette and aged at 4 °C for 1 day prior to use in settlement assays. Only batches of cyprids that were active and had numerous oil cells, representing energy reserves, were used in settlement assays.
(§2) Assays were conducted by adding 10 cyprids into individual wells of a 24-well polystyrene sterile microplate (Orange Scientific, Braine l’Alleud, Belgium) with 2 mL of artificial sea water (ASW) (25‰) and various concentrations of the chemical compounds as listed in Table 1. These experiments were repeated at least three times with four replicates for each concentration of any given compound (n = 120 cyprids/compound). Stock solutions for all compounds were prepared in methanol (Scharlab, Barcelona, Spain) and serial dilutions were prepared in 0.7 μm (GF/F, GE Healthcare, Little Chalfont, UK), filtered sea water to have a final concentration of 2.5% methanol in each assay solution. Plates were covered and sealed with Parafilm® to avoid evaporation and incubated at 25 °C away from any light source and examined after 24, 48 and 72 h. Each animal was inspected under a stereomicroscope and its condition was recorded. […] Both permanently attached and metamorphosed individuals were counted as settled or juveniles. The remainder were counted as ‘no metamorphosis’, i.e. animals that responded to light touch and were still cyprids at the end of the experiments with no overt signs of metamorphosis.
(§3) For EC50 or IC50 (the concentration that results in 50% stimulation or inhibition relative to the control) calculations in GraphPad Prism v.6, all data were fitted to the curve according to the following models for normalized response: Y = 100/(1 + 10^((X − LogIC50))) or Y = 100/(1 + 10^((LogEC50 − X))) depending on the trend of the curve.

Series [2] is described as follows: in vivo. The series is classed as in vivo. To be noted: Amphibalanus amphitrite, in vivo, read-out: LC50 Mortality; for LC50 at 24 h: 24 h exposure; for LC50 at 48 h: 48 h exposure; for LC50 at 72 h: 72 h exposure. The protocol: as §1, §2, §3

Like-named read-outs stand apart in the source and are kept apart here.

Take `Cc1cc(O)c(C2(C)CCC3CC32C)cc1Br` (centres unmarked) [Compound 6, laurinterol]: in series [1] (24 h), the EC50 – broadly, the midpoint of the concentration-response curve – came out at 28.3 µM and the IC50 (as a rule, the concentration that gives 50% inhibition) stood at 2.42 µM. In addition, in series [1] (48 h), the EC50 turned out to be 10.8 µM and the IC50 is 2.22 µM. For the same compound, in series [1] (72 h), the 50% effective concentration (EC50) came out at 15 µM and the IC50 was 1.27 µM. The “toxic effect on cyprids” value in series [1] is reported as “obvious toxic effect on cyprids”. Besides, in series [2], the LC50 (in general, the concentration that kills 50% of the test population) at 24 h stood at 12.3 µM; the LC50 at 48 h worked out at 5.29 µM; the LC50 at 72 h is 2.31 µM.
Turning to `Cc1cc2c(cc1Br)C1(C)CCC(C)(O2)C1C` (centres unmarked) [Compound 5, filiformin], the EC50 in series [1] (24 h) is 27 µM; in series [1] (48 h), 0.001 µM; in series [1] (72 h) it was 0.287 µM. For the same compound, the IC50 was 2.26 µM in series [1] (24 h), 5.45 µM in series [1] (48 h) and 12.9 µM in series [1] (72 h). Moreover, the LC50 at 24 h in series [2] was determined as 33.1 µM.
With `C=CC(C)(O)CCC1C(=C)CCC(Br)C1(C)CCC(O)C(C)(C)Cl` (centres unmarked) [Compound 16], in series [1] (24 h), the EC50 was determined as 58.3 µM and the IC50 worked out at 1.42 µM. Also, in series [1] (48 h), the concentration for a half-maximal effect (EC50) is 49.1 µM and the IC50 stood at 1.96 µM. Moreover, in series [1] (72 h), the EC50 worked out at 58.5 µM and the IC50 was 2.2 µM. Further, in series [2], the LC50 at 24 h is more than 1000 µM, the LC50 at 48 h is more than 1000 µM and the LC50 at 72 h was more than 1000 µM.
With `C#CC=CCC1OC(C=CC)CC=CCC1Cl` (centres unmarked) [Compound 21, (3Ε)-laurenyne], in series [1] (24 h), the EC50 came out at 7.42 µM and the IC50 amounted to 3.21 µM. In series [1] (48 h), the EC50 was found to be 18.2 µM and the 50% inhibitory concentration (IC50) was determined as 7.37 µM. For the same compound, in series [1] (72 h), the EC50 was found to be 0.001 µM and the IC50 was 0.575 µM. Further, in series [2], the LC50 at 24 h came to 0.575 µM, the LC50 at 48 h was 1.12 µM and the LC50 at 72 h stood at 18.6 µM.
Take `C=C1CC[C@@](C)(c2ccc(C)cc2OC(C)=O)[C@H]1C` [Compound 2, debromoallolaurinterol acetate]: in series [1] (24 h), the EC50 came out at 44 µM and the IC50 is 2.02 µM. Moreover, in series [1] (48 h), the EC50 was found to be 38.2 µM and the IC50 turned out to be 18.1 µM. In series [1] (72 h), the EC50 came out at 36.5 µM and the IC50 turned out to be 19.8 µM. In series [2], the LC50 at 24 h is more than 1000 µM, the LC50 at 48 h came to 790 µM and the LC50 at 72 h stood at 191 µM.
As for `CC1=CC[C@@]2(C)C(=C(C)C(=O)[C@@H](O)[C@@H]2C)CC1` [Compound 10, perforenone A], in series [1] (24 h), the EC50 is 39.3 µM and the IC50 came out at 5.24 µM. Further, in series [1] (48 h), the EC50 is 71 µM and the half-maximal inhibitory concentration (IC50) was found to be 0.662 µM. For the same compound, in series [1] (72 h), the EC50 came out at 57.2 µM and the IC50 worked out at 4.66 µM. In series [2], the LC50 at 24 h worked out at 28.8 µM, the LC50 at 48 h turned out to be 28.5 µM and the LC50 at 72 h turned out to be 28.8 µM.
For `CCC=CCC(Br)C(CC1OC(C=C=CBr)CC1OC(C)=O)OC(C)=O` (centres unmarked) [Compound 23, graciosallene], the EC50 in series [1] (24 h) worked out at 0.276 µM; in series [1] (48 h) it was 10.3 µM; in series [1] (72 h), 11.2 µM. In addition, the half-inhibitory concentration (IC50) in series [1] (24 h) stood at 0.237 µM; in series [1] (48 h) it was 9.18 µM; in series [1] (72 h), 9.7 µM.
With `C=C1CC[C@@](C)(c2cc(Br)c(C)cc2OC(C)=O)[C@H]1C` [Compound 3, allolaurinterol acetate], the IC50 in series [1] (24 h) amounted to 1.04 µM. For the same compound, in series [1] (48 h), the EC50 was 80.9 µM and the IC50 is 1.8 µM. Further, in series [1] (72 h), the EC50 worked out at 109 µM and the IC50 was found to be 2 µM. Also, in series [2], the LC50 at 24 h stood at 66.1 µM, the LC50 at 48 h was found to be 382 µM and the LC50 at 72 h amounted to 269 µM.
Regarding `CC(C)[C@H]1CC(C)(C)[C@@H](O)C2=C1CC[C@H]2C` [Compound 7, epibrasilenol], in series [1] (24 h), the EC50 worked out at 25.4 µM and the IC50 is 17.5 µM. Moreover, in series [1] (48 h), the EC50 came out at 21.7 µM and the IC50 amounted to 17.7 µM. In series [1] (72 h), the EC50 is 53.2 µM and the half-inhibitory concentration (IC50) was determined as 10.3 µM. Further, in series [2], the LC50 at 24 h is 24.8 µM, the LC50 at 48 h was determined as 23.4 µM and the LC50 at 72 h was 25 µM.
As to `CC(=CC=CC1(C)CCC(Br)C(C)(C)O1)C1CCC(C)(O)C(Br)C1` (centres unmarked) [Compound 20, O^11,15-cyclo-14-bromo-14,15-dihydrorogiol-3,11-diol], the EC50 in series [1] (24 h) was found to be 47 µM; in series [1] (48 h) it was 11.3 µM; in series [1] (72 h), 10.1 µM. For the same compound, the values for the half-inhibitory concentration (IC50) in series [1] (24 h), in series [1] (48 h) and in series [1] (72 h) were 2.57 µM, 2.89 µM and 3.32 µM, respectively. In addition, the LC50 at 72 h in series [2] was found to be 138 µM.
As to `C=CC(C)(O)CC[C@H](Br)[C@@]1(C)CC[C@H](Br)C(C)(C)O1` (some centres unmarked) [Compound 13, obtusenol], in series [1] (24 h), the EC50 was 46.4 µM and the IC50 was 1.49 µM. In series [1] (48 h), the EC50 stood at 64.7 µM and the IC50 turned out to be 1.06 µM. In series [1] (72 h), the EC50 came out at 78.9 µM and the IC50 was determined as 1.02 µM. Also, in series [2], the median lethal concentration (LC50) at 24 h was found to be 29.8 µM, the LC50 at 48 h was 849 µM and the LC50 at 72 h came out at 8.15 µM.
Consider `C=CC(C)(O)CCC1C(=C)CCC(Br)C1(C)CCC(Br)C(C)(C)O` (centres unmarked) [Compound 17], for which the EC50 in series [1] (24 h) turned out to be 0.057 µM; in series [1] (48 h) it was 0.921 µM; in series [1] (72 h), 101 µM. For the same compound, the figures for the IC50 in series [1] (24 h), in series [1] (48 h) and in series [1] (72 h) were 0.634 µM, 0.806 µM and 1.19 µM, respectively. Besides, the LC50 at 72 h in series [2] is more than 1000 µM.
With `CC(C)C1=C2CCC(C)C2CC(C)(C)C1O` (centres unmarked) [Compound 8, 4-hydroxy-5-brasilene], in series [1] (24 h), the EC50 came out at 6.81 µM and the IC50 amounted to 15.8 µM. Besides, in series [1] (48 h), the EC50 was 5.01 µM and the IC50 was 17.5 µM. Further, in series [1] (72 h), the EC50 came out at 5.42 µM and the IC50 was 6.95 µM. Further, in series [1], the “toxic effect on cyprids” value is recorded as “obvious toxic effect on cyprids”. Also, in series [2], the LC50 at 24 h was 7.76 µM, the LC50 at 48 h amounted to 7.38 µM and the 50% lethal concentration (LC50) at 72 h was determined as 5.93 µM.
`CC(=O)OCC(Br)C1(C)CC=C2C(C1)C(O)CC1C2(C)CC(OC(C)=O)C2CC21C` (centres unmarked) [Compound 15, deoxyparguerol 16-acetate]: in series [1] (24 h), the EC50 amounted to 63.6 µM and the IC50 was determined as 2.84 µM. Further, in series [1] (48 h), the EC50 was 55.1 µM and the concentration for half-maximal inhibition (IC50) turned out to be 7.02 µM. Besides, in series [1] (72 h), the EC50 stood at 73 µM and the 50% inhibitory concentration (IC50) turned out to be 5.37 µM. In addition, in series [2], the 50% lethal concentration (LC50) at 24 h came out at 31.7 µM, the LC50 at 48 h was 33.4 µM and the median lethal concentration (LC50) at 72 h was found to be 34.6 µM.
For `C=C1CC[C@@](C)(c2ccc(C)cc2)[C@H]1C` [Compound 1, laurene], in series [1] (24 h), the EC50 is 38 µM and the concentration for half-maximal inhibition (IC50) amounted to 27.9 µM. Besides, the IC50 in series [1] (48 h) was 14.6 µM. Further, the IC50 in series [1] (72 h) turned out to be 16.2 µM. Further, in series [2], the LC50 at 24 h turned out to be 26 µM, the LC50 at 48 h was 230 µM and the LC50 at 72 h worked out at 29.5 µM.
